Results reported in patent publication US8575091B1, “Amylin analogues and pharmaceutical compositions thereof” (Novo Nordisk A/S, priority 2012, dated 2013).
Numbered stars: 1 amine (or outer) side, 2 acyl side, 3 side chain; on linkers, the order of the positions; unused ones are H or OH. Bridge positions count the residues as written; N and C are the ends. Side chains are listed from the residue outwards. Peptide text beside a SMILES is read from it. * marks the point of attachment. C20 diacid = O=C(O)CCCCCCCCCCCCCCCCCCC(=O)*; γGlu = O=C(O)[C@H](CCC(=O)[*:2])N[*:1]; AEEA = NCCOCCOCC(=O)O

How the values were obtained:
[1] = target: T1, human calcitonin receptor (Homo sapiens, UniProt P30988); test: Assay (II)a functional assay, human calcitonin receptor (CRE luciferase, BHK cells);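 further: luminescence from a CRE-driven luciferase reporter, read by single photon counting after cells were exposed to test samples for 3 h at 37 °C under 5% CO2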; assay type: cell-based; conditions: read-out: hCTR funct. EC50
T1 construct: expressed in transfected cells
T1 sequence (P30988 25-474): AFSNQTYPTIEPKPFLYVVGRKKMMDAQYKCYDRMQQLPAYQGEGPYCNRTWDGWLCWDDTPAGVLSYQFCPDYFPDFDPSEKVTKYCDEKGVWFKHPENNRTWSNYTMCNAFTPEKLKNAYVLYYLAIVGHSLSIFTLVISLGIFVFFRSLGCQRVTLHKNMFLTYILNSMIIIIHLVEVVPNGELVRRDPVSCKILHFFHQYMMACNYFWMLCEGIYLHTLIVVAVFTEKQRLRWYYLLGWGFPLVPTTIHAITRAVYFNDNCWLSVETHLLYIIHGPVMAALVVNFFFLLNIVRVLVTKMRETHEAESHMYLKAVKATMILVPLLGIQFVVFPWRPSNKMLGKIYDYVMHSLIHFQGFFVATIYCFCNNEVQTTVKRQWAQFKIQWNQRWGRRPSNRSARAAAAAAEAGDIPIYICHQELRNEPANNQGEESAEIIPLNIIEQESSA
Description: Assay (II)—Functional Assays
Consequently, transcription is activated by promoters containing multiple copies of the cAMP response element (CRE).
The cell line was further transfected with RAMP-3, using standard methods.
After incubation overnight at 37° C. and 5% CO2, the growth medium was replaced by 50 μl/well assay medium (DMEM (without phenol red), Glutamax™, 10% FBS, and 10 mM Hepes, pH 7.4). Further, 50 μl/well of standard or sample in assay buffer were added. After 3 hours incubation at 37° C. and 5% CO2, the assay medium with standard or sample were removed and replaced by 100 μl/well PBS. Further, 100 μl/well LucLite™ was added. The plates were sealed and incubated at room temperature for 30 minutes. Finally, luminescence was measured on a TopCounter (Packard) in SPC (single photon counting) mode.

[2] = Assay (III) ThT fibrillation assay for physical stability; assay type: physicochemical
Description: Assay (III)—ThT Fibrillation Assays for the Assessment of Physical Stability of Protein Formulations Low physical stability of a polypeptide may lead to amyloid fibril formation, which is observed as well-ordered, thread-like macromolecular structures in the sample eventually resulting in gel formation. This has traditionally been measured by visual inspection of the sample. However, that kind of measurement is very subjective and depending on the observer. Therefore, the application of a small molecule indicator probe is much more advantageous. Thioflavin T (ThT) is such a probe and has a distinct fluorescence signature when binding to fibrils [Naiki et al. (1989) Anal. […] LeVine (1999) Methods. Enzymol. […], 274-284]. The time course for fibril formation can be described by a sigmoidal curve with the following expression [Nielsen et al. (2001) Biochemistry 40, 6036-6046]: […] Here, F is the ThT fluorescence at the time t. The constant t0 is the time needed to reach 50% of maximum fluorescence. […] Incubation and Fluorescence Measurement Incubation at given temperature, shaking and measurement of the ThT fluorescence emission were done in a Fluoroskan Ascent FL fluorescence platereader or Varioskan platereader (Thermo Labsystems). […] Fluorescence measurement was done using excitation through a 444 nm filter and measurement of emission through a 485 nm filter. […] The plate was measured every 20 minutes for a desired period of time. […] However, since full sigmodial curves in this case are not always achieved during the measurement time, the degree of fibrillation is expressed as ThT fluorescence tabulated as the mean of the samples and shown with the standard deviation at various time points. Measurement of Initial and Final Concentrations The polypeptide concentration in each of the tested formulations were measured both before application in the ThT fibrillation assay (“Initial”) and after completion of the ThT fibrillation (“After ThT assay”). Concentrations were determined by reverse HPLC methods using a pramlintide standard as a reference. […]

human amylin receptor = target: T2, human amylin receptor (Homo sapiens, UniProt O60896+P30988); test: Assay (V) binding to the human amylin receptor (SPA, 125I-rat amylin); conditions: human amylin receptor membranes, SPA; read-out: hAmylin-R bind IC50
T2 construct: expressed in transfected cells
T2 sequence (P30988 25-474): T1 sequence (P30988 25-474)
T2 sequence (O60896 24-148 partner): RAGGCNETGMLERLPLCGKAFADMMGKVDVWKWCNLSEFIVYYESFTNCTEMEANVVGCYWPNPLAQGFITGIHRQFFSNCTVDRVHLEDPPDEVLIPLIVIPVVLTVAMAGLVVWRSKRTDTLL
Outline: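 IC50, taken as receptor affinity, came from one-site binding competition analysis of scintillation proximity counts. Amylin 3(a)/CRE-luc cell membranes (35 ng/μL final) were mixed with SPA beads (0.05 mg/well) in 50 mM Hepes pH 7.4 containing CaCl2, MgCl2, 0.1% OA and 0.02% Tween20.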

[3] = target: T1, human calcitonin receptor; test: Assay (VII) binding to the human calcitonin receptor (SPA, 125I-Calcitonin); conditions: read-out: hCTR bind IC50;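 further: cell membranes coupled to SPA beads, competitive displacement read by scintillation counting, IC50 derived from a one-site competition fit as a measure of receptor affinity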
Description: Membranes were prepared in the following way; the cells were rinsed with PBS and incubated with Versene for approximately 5 min before harvesting. The cells were flushed with PBS and the cell-suspension was centrifuged for 5 min at 1000 rpm. […] The resulting pellet was resuspended in buffer 2 and protein concentration was measured (BCA protein Assay, Pierce). The homogenate was kept cold during the whole procedure. The membranes were kept at −80° C. until use. Assay was performed in a 384 well Optiplate (PerkinElmer) in a total volume of 40 ul. Membranes were mixed with SPA beads. Final concentration of membranes 35 ng/μL final and Final concentration of SPA beads was 0.05 mg/well. Test-compounds were dissolved in DMSO and further diluted in assay buffer (50 mM Hepes, pH 7.4, 1 mM CaCl2, 5 mM MgCl2, 0.1% OA and 0.02% Tween20). […] Samples were analyzed on TopCounter™ (Packard). The IC50 was calculated using (one site binding competition analysis) GraphPad Prism5 as a measure of receptor affinity.

[4] = target: T3, human amylin receptor (amylin 3(a) receptor: human calcitonin receptor + RAMP-3) (Homo sapiens, UniProt O60896+P30988); test: Assay (II)a functional assay, human amylin receptor (CRE luciferase, BHK cells); assay type: cell-based; conditions: functional assay, human amylin receptor; read-out: hAmylin-R funct. EC50
T3 construct: expressed in transfected cells
T3 sequence (P30988 25-474): T1 sequence (P30988 25-474)
T3 sequence (O60896 24-148 partner): T2 sequence (O60896 24-148 partner)

Which results are given for `CC[C@H](C)[C@H](NC(=O)[C@H](C)NC(=O)CNC(=O)[C@H](Cc1ccccc1)NC(=O)[C@H](CC(N)=O)NC(=O)[C@@H]1CCCN1C(=O)[C@H](CO)NC(=O)[C@H](CO)NC(=O)[C@H](Cc1c[nH]cn1)NC(=O)[C@H](CCCNC(=N)N)NC(=O)[C@H](CC(C)C)NC(=O)[C@H](Cc1ccccc1)NC(=O)[C@H](CO)NC(=O)[C@H](C)NC(=O)[C@H](CC(C)C)NC(=O)[C@H](CCCNC(=N)N)NC(=O)[C@H](CCC(N)=O)NC(=O)[C@@H](NC(=O)[C@H](C)NC(=O)[C@@H]1CSSC[C@H](NC(=O)[C@@H](N)CCCCNC(=O)COCCOCCNC(=O)CC[C@H](NC(=O)CCCCCCCCCCCCCCCCCCC(=O)O)C(=O)O)C(=O)N[C@@H](CC(N)=O)C(=O)N[C@@H]([C@@H](C)O)C(=O)N[C@@H](C)C(=O)N[C@@H]([C@@H](C)O)C(=O)N1)[C@@H](C)O)C(=O)N1CCC[C@H]1C(=O)N[C@@H](CO)C(=O)N[C@@H](CO)C(=O)N[C@H](C(=O)N1CCC[C@H]1C(=O)N[C@H](C(=O)NCC(=O)N[C@@H](CO)C(=O)N[C@@H](CC(N)=O)C(=O)N[C@H](C(=O)N[C@@H](Cc1ccc(O)cc1)C(N)=O)[C@@H](C)O)C(C)C)[C@@H](C)O` [Example 73] (H-K([AEEA-γGlu-C20 diacid])CNTATCATQRLASFLRHSSPNFGAIPSSTPVGSNTY-NH2; disulfide 2-7)?
EC50 [1]: 0.961 nM; ThT pH 4.0 recovery (%) [2]: 1%; IC50 (human amylin receptor): 0.104 nM; IC50 [3]: 5.38 nM; EC50 [4]: 0.085 nM
